≈ marks a conversion by molar mass, not a printed value.

For one data set, the system named is Mtb H37Rv strain. Kind of data set: Mtb H37Rv assay, resazurin microtiter-based assay (REMA). The class given is cell-based, Mycobacterium tuberculosis. The settings on record: Mycobacterium tuberculosis, REMA plate method, 90% inhibition with respect to growth control. On the technique in general: The colour change of resazurin is a common sign of viable cells or microbes.

One may read the melting point as the temperature of the solid-liquid transition. Consider `Nn1c(-c2ccncc2)nn(CC(=O)Nc2ccc(C(F)(F)F)cc2)c1=S` [Compound 6n, 2-(4-Amino-(3-pyridin-4-yl)-5-thioxo-4,5-dihydro-1H[1,2,4]triazol-1-yl)-N-(4-trifluoromethylphenyl) acetamide], for which the melting point is 227 to 229 °C.

Regarding `Nn1c(-c2ccncc2)nn(CC(=O)Nc2cc(C(F)(F)F)ccc2Cl)c1=S` [Compound 6k, 2-(4-Amino-(3-pyridin-4-yl)-5-thioxo-4,5-dihydro-1H[1,2,4]triazol-1-yl)-N-(2-chloro-5-trifluoromethylphenyl) acetamide], the melting point was 184 to 186 °C.

Turning to `O=C(Cn1nc(-c2ccncc2)oc1=S)Nc1nc2ccccc2s1` [Compound 7f, 2-(5-pyridin-4-yl-2-thioxo-[1,3,4]oxadiazol-3-yl)-N-benzothiazol-2-yl acetamide], the melting point is 206 to 208 °C.

`Nn1c(-c2ccncc2)nn(CC(=O)Nc2ccc(F)cc2)c1=S` [Compound 6m, 2-(4-Amino-(3-pyridin-4-yl)-5-thioxo-4,5-dihydro-1H[1,2,4]triazol-1-yl)-N-(4-fluorophenyl) acetamide]: the melting point lay in the range of 227 to 229 °C.

The compound `Cc1cnc(NC(=O)Cn2nc(-c3ccncc3)n(N)c2=S)s1` [Compound 6v, 2-(4-Amino-(3-pyridin-4-yl)-5-thioxo-4,5-dihydro-1H[1,2,4]triazol-1-yl)-N-(5-methylthiazol-2-yl) acetamide] yielded a melting point of 250 to 252 °C.

For the compound `O=C(Cn1nc(-c2ccncc2)oc1=S)Nc1ccccn1` [Compound 7a, 2-(5-pyridin-4-yl-2-thioxo-[1,3,4]oxadiazol-3-yl)-N-pyridin-2-yl acetamide], the melting point lay within 216 to 218 °C.

`Cc1ccnc(NC(=O)Cn2nc(-c3ccncc3)n(N)c2=S)c1` [Compound 6q, 2-(4-Amino-(3-pyridin-4-yl)-5-thioxo-4,5-dihydro-1H[1,2,4]triazol-1-yl)-N-(4-methylpyridin-2-yl) acetamide] registered a melting point of 217 to 219 °C.

On to `Cc1cccc2sc(NC(=O)Cn3nc(-c4ccncc4)n(N)c3=S)nc12` [Compound 6t, 2-(4-Amino-(3-pyridin-4-yl)-5-thioxo-4,5-dihydro-1H[1,2,4]triazol-1-yl)-N-(4-methylbenzothiazol-3-yl) acetamide], for which the melting point fell in the range of 243 to 245 °C.

`COc1cccc(NC(=O)Cn2nc(-c3ccncc3)n(N)c2=S)c1` [Compound 6l, 2-(4-Amino-(3-pyridin-4-yl)-5-thioxo-4,5-dihydro-1H[1,2,4]triazol-1-yl)-N-(3-methoxyphenyl) acetamide] had a melting point of 222 to 224 °C.

In the case of `Cc1cc(NC(=O)Cn2nc(-c3ccncc3)n(N)c2=S)no1` [Compound 6s, 2-(4-Amino-(3-pyridin-4-yl)-5-thioxo-4,5-dihydro-1H[1,2,4]triazol-1-yl)-N-(5-methylisoxazol-3-yl) acetamide], the melting point lay within 242 to 244 °C.

By MIC is commonly meant the smallest concentration in the dilution series that meets the test's criterion for growth inhibition. A low value points to greater potency. `NNC(=O)c1ccncc1` [INH, isoniazid, reference compound] had a minimum inhibitory concentration (MIC) in the data set on Mtb H37Rv strain of 0.05 µM (≈ 6.86 ng/mL).

`O=C(Cn1nc(-c2ccncc2)oc1=S)Nc1nccs1` [Compound 7c, 2-(5-pyridin-4-yl-2-thioxo-[1,3,4]oxadiazol-3-yl)-N-thiazol-2-yl acetamide] returned a melting point of 244 to 246 °C.

`Nn1c(-c2ccncc2)nn(CC(=O)Nc2nccs2)c1=S` [Compound 6u, 2-(4-Amino-(3-pyridin-4-yl)-5-thioxo-4,5-dihydro-1H[1,2,4]triazol-1-yl)-N-thiazol-2-yl acetamide] came in with a melting point of 253 to 255 °C.

`Nn1c(-c2ccncc2)nn(CC(=O)Nc2ncccn2)c1=S` [Compound 6r, 2-(4-Amino-(3-pyridin-4-yl)-5-thioxo-4,5-dihydro-1H[1,2,4]triazol-1-yl)-N-pyrimidin-2-yl acetamide] returned a melting point of 205 to 207 °C.

The values above are taken from PMC7059037, “Development of 1,2,4-Triazole-5-Thione Derivatives as Potential Inhibitors of Enoyl Acyl Carrier Protein Reductase (InhA) in Tuberculosis” (Iranian Journal of Pharmaceutical Research : IJPR, 2019).
